Structures can show the parent of a compound that is named as a salt.
| SMILES | melting point |
| --- | --- |
| C=CCNc1nc(NCC=C)c2cc(NC)ccc2n1 (as salt: hydrochloride) | 155 to 158 °C |
| C=CCNc1nc(NC(C)CC)nc2ccc([N+](=O)[O-])cc12 (stereo not shown) (as salt: hydrochloride) | 219 to 220 °C |
| C=CCNc1nc(NC(C)(C)C)c2cc([N+](=O)[O-])ccc2n1 (as salt: hydrochloride) | 208 to 209 °C |
| C=CCNc1nc(N(CC=C)CC=C)nc2c(C)csc12 (as salt: hydrochloride) | 136 to 138 °C (dec.) |
| C=CCNc1nc(NC(=O)NC(C)(C)C)c2scc(C)c2n1 (as salt: hydrochloride) | 192 to 194 °C |
| C=CCNc1nc(NCc2ccco2)nc2ccc([N+](=O)[O-])cc12 (as salt: hydrochloride) [Example 33, 4-Allylamino-2-furfurylamino-6-nitroquinazoline hydrochloride] | 217 to 218 °C |
| C=CCNc1nc(NC(C)CC)c2cc([N+](=O)[O-])ccc2n1 (stereo not drawn) (as salt: hydrochloride) [Example 49, 2-Allyiamino-4-(l-methylpropylamino)-6-nitroquinazoline hydrochloride] | 176 to 177 °C |
| C=CCNc1nc(NC2CCCCC2)c2scc(C)c2n1 (as salt: hydrochloride) [Example 70, 2-Allylamino-4-cyclohexylamino-7-methylthieno[3,2-d] pyrimidine hydrochloride] | 140 to 142 °C |
| C=CCNc1nc(N(CC=C)CC=C)c2scc(C)c2n1 (as salt: hydrochloride) [Example 71, 2-Allylamino-4-diallylamino-7-methylthieno[3,2-d] pyrimidine hydrochloride] | 76 to 78 °C (dec.) |
| C=CCNc1nc(NCCOC)nc2ccc([N+](=O)[O-])cc12 [Example 8, 4-Allylamino-2-(2-methoxyethylamino)-6-nitroquinazoline] | 164 to 165 °C |
| C=CCNc1nc(N(CC=C)CC=C)nc2ccc([N+](=O)[O-])cc12 [Example 9, 4-Allylamino-2-diallylamino-6-nitroquinazoline] | 167 to 168 °C |
| C=CCNc1nc(NCC(C)(C)C)c2cc([N+](=O)[O-])ccc2n1 [Example 11, 2-Allylamino-4-neopentylamino-6-nitroauinazoline] | 216 to 217 °C |
| C=CCNc1nc(NCc2ccccc2)c2cc([N+](=O)[O-])ccc2n1 [Example 12, 2-Allylamino-4-benzylamino-6-nitroquinazoline] | 235 to 236 °C |
| C=CCNc1nc(N2CCCCC2)c2cc([N+](=O)[O-])ccc2n1 [Example 13, 2-Allylamino-6-nitro-4-piperidinoquinazoline] | 123 to 124 °C |
| C=CCNc1nc(NCC=C)c2cc(N)ccc2n1 [Example 14, 2,4-Diallylamino-6-aminoquinazoline] | 212 to 215 °C |
| C=CCNc1nc(N(CC=C)CC=C)nc2ccc(Cl)cc12 [Example 15, 4-Allylamino-2-diallylamino-6-chloroquinazoline] | 73 to 74 °C |
| C=CCNc1nc(NC)nc2ccc([N+](=O)[O-])cc12 [Example 16, 4-Allylamino-2-methylamino-6-nitroquinazoline] | 238 to 239 °C |
| C=CCNc1nc(NCC)nc2ccc([N+](=O)[O-])cc12 [Example 17, 4-Allylamino-2-ethylamino-6-nitroquinazoline] | 227 to 228 °C |
| C=CCNc1nc(NC(C)(C)C)nc2ccc([N+](=O)[O-])cc12 [Example 19, 4-Allylamino-2-t-butylamino-6-nitroquinazoline] | 139 to 140 °C |

| SMILES | melting point |
| --- | --- |
| C=CCNc1nc(NCCN)nc2ccc([N+](=O)[O-])cc12 [Example 20, 4-Allylamino-2-(2-aminoethylamino)-6-nitroquinazoline] | 126 to 128 °C |
| C=CCNc1nc(NC/C=C/c2ccccc2)c2cc([N+](=O)[O-])ccc2n1 [Example 23, 2-Allylamino-4-trans-cinnamylamino-6-nitroquinazoline] | 206 to 208 °C |
| C=CCNc1nc(NCCCC)c2cc([N+](=O)[O-])ccc2n1 [Example 24, 2-Allylamino-4-butylamino-6-nitroquinazoline] | 214 to 215 °C |
| C#CCNc1nc(NCC=C)c2cc([N+](=O)[O-])ccc2n1 [Example 29, 4-Allylamino-6-nitro-2-(2-propynylamino)quinazoline] | 192 to 193 °C |
| C=CCNc1nc(NC/C=C/C)nc2ccc([N+](=O)[O-])cc12 [Example 30, 4-Allylamino-2-(trans-2-butenylamino)-6-nitroquinazoline] | 188 to 189 °C |
| C=CCNc1nc(NCCCCCCC)nc2ccc([N+](=O)[O-])cc12 [Example 36, 4-Allylamino-2-heptylamino-6-nitroquinazoline] | 173 to 174 °C |
| C=CCNc1nc(NN2CCCCC2)nc2ccc([N+](=O)[O-])cc12 [Example 37, 4-Allylamino-6-nitro-2-piperidinoaminoquinazoline] | 221 to 222 °C |
| C=CCNc1nc(NCCOCCC)nc2ccc([N+](=O)[O-])cc12 [Example 38, 4-Allylamino-6-nitro-2-(2-propoxyethylamino)quinazoline] | 169 to 170 °C |
| C=CCNc1nc(NC(=O)NC(C)(C)C)c2cc([N+](=O)[O-])ccc2n1 [Example 40, 2-Allylamino-4-(t-butylcarbamoyl)amino-6-nitroquinazoline] | 200 to 201 °C |
| C=CCN(C(=O)NC(C)(C)C)c1nc(NC(=O)NC(C)(C)C)c2cc([N+](=O)[O-])ccc2n1 [Example 41, 2-[N-allyl-N-(t-butylcarbamoyl)amino]-4-(t-butylcarbamoyl)amino-6-nitroquinazoline] | 105 to 106 °C |
| C=CCNc1nc(NC(C)=O)c2cc([N+](=O)[O-])ccc2n1 [Example 42, 4-Acetylamino-2-allylamino-6-nitroquinazoline] | 253 to 254 °C |
| C=CCNc1nc(NC(=O)OCC(C)C)c2cc([N+](=O)[O-])ccc2n1 [Example 43, 2-Allylamino-4-(2-methylpropoxycarbonyl)amino-6-nitroquinazoline] | 148 to 149 °C |
| C=CCNc1nc(NC(C)=O)nc2ccc([N+](=O)[O-])cc12 [Example 44, 2-Acetylamino-4-allylamino-6-nitroquinazoline] | 239 to 240 °C |
| C=CCNc1nc(NC(=O)NCCC)nc2ccc([N+](=O)[O-])cc12 [Example 45, 4-Allylamino-6-nitro-2-(propylcarbamoyl)aminoquinazoline] | 254 to 255 °C |
| C=CCNc1nc(NN(C)C)c2cc([N+](=O)[O-])ccc2n1 [Example 46, 2-Allylamino-4-(2,2-dimethylhydrazino)-6-nitroquinazoline] | 145 to 146 °C |
| C=CCNc1nc(NCCCCCCCCCCCC)c2cc([N+](=O)[O-])ccc2n1 [Example 47, 2-Allylamino-4-dodecylamino-6-nitroquinazoline] | 154 to 155 °C |
| C=CCNc1nc(NCCCCCCCCCCCC)nc2ccc([N+](=O)[O-])cc12 [Example 48, 4-Allylamino-2-dodecylamino-6-nitroquinazoline] | 148 to 155 °C |
| C=CCNc1nc(NC23CC4CC(CC(C4)C2)C3)c2cc([N+](=O)[O-])ccc2n1 [Example 52, 4-(1-Adamantylamino)-2-allylamino-6-nitroquinazoline] | 224 to 225 °C |
